Experimental data from patent publication US20110136728A1, “METHODS OF INCREASING BONE FORMATION USING LEPTIN-RELATED PEPTIDES” (priority 2009, published 2011).
Non-standard residues stand in square brackets, D forms with d. Residues, ends and D or L forms follow the SMILES beside them.

How the values were obtained:
[1] = test system: male C57BL/6J ob/ob mice; assay: Oral delivery (gavage) in ad libitum fed ob/ob mice: body weight, food and water intake, serum glucose, serum osteocalcin; type: in vivo, mouse
Experimental: Six week-old male C57BL/6J wild type and ob/ob mice were obtained from Jackson Laboratories (Bar Harbor, Me., USA). The animals were housed individually polycarbonate cages fitted with stainless steel wire lids and air filters, and supported on ventilated racks (Thoren Caging Systems, Hazelton, Pa., USA) in the Albany Medical College Animal Resources Facility. The mice were maintained at a constant temperature (24° C.) with lights on from 07:00 to 19:00, and allowed food and water ad libitum for 6 days following arrival. During the test period, mice were fed ad libitum or calorie restricted to 60% of normal. Water intake was allowed ad libitum.
On day 1 of the study, and on each day thereafter, a water bottle containing 200 ml of water was added to each cage between 09:00 and 10:00 h. Mice fed ad libitum were given 200 g of pelleted rodent diet (Prolab Rat, Mouse, Hamster 3000, St. Louis, Mo.; 22% crude protein, 5% crude fat, 5% fiber, 6% ash, 2.5% additional minerals) between 09:00 and 10:00 h each day. The mice were weighed once daily between 09:00 and 10:00 h on an Acculab V-333 electronic balance (Cole-Parmer, Vernon Hills, Ill., USA). Calorie-restricted wild type and ob/ob mice received 60% of normal daily intake. Twenty four hours later, food and water remaining in the cages was measured to the nearest 0.1 g and 0.1 ml, respectively. To assure fasting glucose levels on days in which blood glucose was measured, food was removed from the cages between 09:00 and 10:00 h, and replaced immediately before the beginning of the dark cycle.
Mouse [D-Leu-4]OB3 was prepared commercially as a C-terminal amide by Bachem (Torrance, Calif., USA). The peptide was dissolved in 0.3% Intravail A3® (Aegis Therapeutics, San Diego, Calif. USA) reconstituted in water, and administered by gavage once daily for 10 days at a concentration of 1 mg/200 μl immediately before the start of the dark cycle. Is has previously been shown that this is the optimum concentration of mouse [D-Leu-4]-OB3 and its related bioactive peptide amides, for regulating energy expenditure, glucose levels, and insulin sensitivity in two genetically obese mouse models (see Rozhayskaya-Arena M. et al., Endocrinology 141:2501-2517 (2000); Grasso P. et al. Regulatory Pep. 101:123-129 (2001); Grasso P. et al., Diabetes 48:2204-2209 (1999), Grasso P. et al., Endocrinology 138:1413-1418 (1997); Grasso P. et al., Regulatory Peptides 85:93-100 (1999); and Grasso P. et al., Diabetes 48:2204-2209 (1999)). Vehicle injected control mice received 200 ul of Intravail A3® only.
Initial blood samples were drawn by snipping the end of the tail of each mouse at the beginning of the study (day 0); subsequent samples were obtained by gently removing the scab. Blood was taken 1 h before the onset of the dark period at the beginning of the study, and after 2, 4, 6, 8, and 10 days of treatment. The blood was applied to a test strip, and glucose levels were measured with a Glucometer Elite glucose meter (Bayer, Elkhart, Ind., USA).
At the end of the study, the mice were anesthetized with isoflurane (5%) and exsanguinated by cardiac puncture. Euthanasia was confirmed by cervical dislocation. The blood was collected in sterile nonheparinized plastic centrifuge tubes and allowed to stand at room temperature for 1 h. The clotted blood was rimmed from the walls of the tubes with sterile wooden applicator sticks. Individual serum samples were prepared by centrifugation for 30 min at 2600×g in an Eppendorf 5702R, A-4-38 rotor (Eppendorf North America, Westbury, N.Y., USA). The serum samples in each experimental group (n=6) were pooled and stored frozen until assayed for osteocalcin content.
Serum osteocalcin in the pooled samples was assayed in triplicate with a mouse osteocalcin ELISA kit obtained from Biomedical Technologies, Inc. (Stoughton, Mass., USA) according to the instructions supplied by the manufacturer. […]

[2] = test system: ob/ob mouse model; settings: Grasso et al., Regu. Pept. 101:123-129 (2001); cited from earlier work
[3] = test system: ob/ob mouse model; assay: Earlier study of OB3 and D-amino acid-substituted OB3 analogs: body weight gain, food and water intake, blood glucose; type: in vivo
Source text: Single-point D-amino acid substitution was used to study the structure-function relationships of each amino acid residue in OB3, and to increase its efficacy. The restricted domain represented by OB3 contains a functional epitope, which has the ability to mimic at least some of the effects of leptin on energy balance and glucose homeostasis.
The design of peptide ligands involved the introduction of conformational constraints into native sequences by techniques that include, but are not limited to, D-amino acid substitution or cyclization. (Hruby and Bonner, Methods Mol Biol. 35:201-40 (1994)). Systematic replacement of L-amino acids by their D-amino acid isoforms was used to determine the stereostructural requirements of specific residues in a peptide for peptide-receptor interaction, and to assess the contribution of certain secondary structural motifs, e.g., α-helix or β-turn, to the bioactivity of the peptide. (Hruby, Biopolymers 33(7):1073-82 (1993) and Hruby, Life Sci. 52(10):845-55 (1993)). This approach increased peptide resistance to enzymatic hydrolysis, and to enhance the properties of biologically active peptides, including receptor binding, functional potency, and duration of action. (See Fauchere et al., Adv. Drug Res., 23:127-139 (1992); Doherty et al., J. Med. Chem., 36:2585-2594 (1993); Kirby et al., J. Med. Chem., 36:3802-3808 (1993); Morita et al., FEBS Lett., 353:84-88 (1994)).
(See Rozhayskaya-Arena M, et al., Endocrinology 141:2501-2517 (2000); Grasso P et al., Regulatory Pep. 101:123-129 (2001)).

[4] = ob/ob, ad libitum fed, 1 mg/day, 10 days, gavage in Intravail
[5] = ob/ob, ad libitum fed, 10 days gavage
[6] = ob/ob, ad libitum fed, oral delivery

In the case of CC(C)C[C@@H](NC(=O)[C@H](CO)NC(=O)[C@H](CS)NC(=O)[C@@H](N)CO)C(=O)N1CCC[C@H]1C(=O)N[C@@H](CCC(N)=O)C(=O)N[C@H](C(N)=O)[C@@H](C)O [mouse [D-Leu-4]-OB3] (H-SCS[dL]PQT-NH2; N-terminus assumed), the “serum osteocalcin relative to wild type control mice” value ([1]; ob/ob mice) is reported as “significantly elevated serum osteocalcin to levels higher than those seen in wild type control mice”, the “Body weight (% of initial)” value [1, 4] is reported as 96.3 ± 0.4 % of initial and the Final body weight [1, 4] is reported as 34.2 ± 0.9 g. For the same molecule, the Serum osteocalcin [1, 4] was 300.5 ± 7.0 ng/mL, the “daily food intake compared to Intravail alone” value [1, 5] was “significantly (P<0.001) less” and the “daily water consumption compared to Intravail treated counterparts” value [1, 5] was “significantly (P<0.05) less water per day”. The “serum glucose after treatment” value [1, 5] was “significantly (P<0.001) reduced serum glucose levels, but not to normal levels”, the “loss of initial body weight” value ([1]; ob/ob, ad libitum fed, after 10 days gavage) was 3.7% and the Final serum glucose ([1]; ob/ob, ad libitum fed, after 10 days, 1 mg/day gavage in Intravail) was 380.5 ± 24.3 mg/dL. For the same molecule, the Initial serum glucose ([1]; ob/ob, ad libitum fed, day 0) was 503.9 ± 19.6 mg/dL, the Initial body weight ([1]; ob/ob, ad libitum fed, day 0, 1 mg/day, 10 days, gavage in Intravail) was 35.5 ± 0.8 g and the “reduction of body weight gain” value [1, 6] was 11.6%. The “reduction of food intake” value [1, 6] was 16.5%, the “reduction of serum glucose” value [1, 6] was 24.4% and the “reduction of water intake” value [1, 6] was 22.4%. The “tissue sensitivity to insulin” value [2] was “increases tissue sensitivity to insulin”, the “effectiveness compared to the other D-amino acid-substituted analogs” value ([3]; compared to OB3, in most of the parameters measured) was “more effective than the other D-amino acid-substituted analogs” and the “Water intake” value ([3]; mouse, in vivo) was “significantly reduced water intake”. The “anorexigenic activity compared with OB3” value ([3]; mouse, in vivo) was “greater anorexigenic activity than OB3”, the “antihyperglycemic effect and its time course” value ([3]; mouse, in vivo) was “lowered blood glucose to levels seen in nondiabetic wild type mice within two days of peptide treatment” and the “potency in reducing body weight gain relative to native OB3” value ([3]; mouse, in vivo) was 2.6 fold.
